Data from patent publication US8551721B2, “Bioluminescent detection of cyanohydroxy benzothiazole compounds” (Promega Corporation, priority 2008, dated 2013).

Tests used:
Format in all cases: biochemical
[1] = biological target: T1, UGT 2B7 (Homo sapiens, UniProt P16662); experiment: UGT activity: utilization of substrate by recombinant UGT 2B7 Supersomes; conditions: 2 hour incubation at 37° C., plus vs minus UDPGA, background corrected
T1 construct: purchased BD Gentest; host or cells: insect cells (microsomes)
T1 sequence (P16662 24-529): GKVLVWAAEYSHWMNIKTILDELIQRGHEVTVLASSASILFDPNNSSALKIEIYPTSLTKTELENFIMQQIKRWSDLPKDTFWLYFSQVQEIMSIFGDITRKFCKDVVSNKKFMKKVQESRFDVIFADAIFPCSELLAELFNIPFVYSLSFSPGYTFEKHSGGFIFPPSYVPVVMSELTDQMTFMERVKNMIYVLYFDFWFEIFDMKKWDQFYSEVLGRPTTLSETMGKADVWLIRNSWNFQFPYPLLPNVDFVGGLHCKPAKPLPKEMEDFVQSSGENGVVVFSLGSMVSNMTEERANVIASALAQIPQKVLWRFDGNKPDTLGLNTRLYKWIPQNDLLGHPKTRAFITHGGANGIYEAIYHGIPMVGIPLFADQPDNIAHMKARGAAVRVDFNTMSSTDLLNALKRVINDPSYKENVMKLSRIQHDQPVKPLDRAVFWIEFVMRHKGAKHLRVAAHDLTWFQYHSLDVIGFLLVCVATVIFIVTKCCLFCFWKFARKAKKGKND
Method: (§1) The invention includes a method of determining activity of the uridine 5′-diphospho-glucuronosyltransferase (UDP-glucuronosyltransferase, or UGT) family enzymes in vitro. Briefly, UGT enzymes from overexpressed insect microsomes (Supersomes™, BD Gentest™) or animal tissue microsomes (Xenotech, BD Gentest™) were incubated with a cyanobenzothiazole substrate of the invention and the cofactor UDP-glucuronic acid (UDPGA) at 37° C. in buffer at physiological pH containing MgCl2 and alamethicin (typically, 50 mM TES, pH 7.5, 8 mM MgCl2, 4 mM UDPGA (Sigma) and 25 μg/mL alamethicin (Sigma)). Following the UGT enzyme reaction, an equal volume of P450-Glo Luciferin Detection Reagent (Promega) containing 15-30 mM D-cysteine-HCl.H2O (Sigma) was added and the plate was mixed and incubated at room temperature, typically for 20-30 minutes. […]
(§2) During this incubation, the cysteine reacts with the cyanobenzathiozole substrate to yield a D-luciferin derivative. […] Therefore, activity of the UGT enzyme can be measured by analyzing the difference (lower or no output) in relative light units (RLU) of a sample in which glucuronidation occurs compared to a sample that was run under the same conditions with no added UDPGA cofactor. […]
(§3) Reactions were assembled in a white 96-well plate. […] After the incubation was completed, the plate was read on a Veritas™ luminometer (Turner BioSystems, Inc.; Sunnyvale, Calif.). […]

[2] = biological target: T2, UGT 1A8 (Homo sapiens, UniProt Q9HAW9); experiment: UGT activity: utilization of substrate by recombinant UGT 1A8 Supersomes; conditions: 2 hour incubation at 37° C., plus vs minus UDPGA, background corrected
T2 construct: purchased BD Gentest; host or cells: insect cells (microsomes)
T2 sequence (Q9HAW9 26-530): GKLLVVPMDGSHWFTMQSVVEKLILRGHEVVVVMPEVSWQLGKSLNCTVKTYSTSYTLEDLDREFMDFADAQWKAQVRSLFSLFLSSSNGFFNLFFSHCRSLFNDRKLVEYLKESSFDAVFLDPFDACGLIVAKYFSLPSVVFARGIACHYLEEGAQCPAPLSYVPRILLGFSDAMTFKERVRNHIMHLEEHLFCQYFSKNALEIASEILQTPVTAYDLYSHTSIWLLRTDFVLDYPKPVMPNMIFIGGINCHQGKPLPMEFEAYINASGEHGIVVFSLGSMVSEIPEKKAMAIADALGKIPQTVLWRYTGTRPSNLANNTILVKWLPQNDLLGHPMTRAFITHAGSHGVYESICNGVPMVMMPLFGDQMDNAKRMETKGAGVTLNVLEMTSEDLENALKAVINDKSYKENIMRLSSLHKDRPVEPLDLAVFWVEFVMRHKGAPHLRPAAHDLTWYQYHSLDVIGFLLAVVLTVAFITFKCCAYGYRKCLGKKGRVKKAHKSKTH
Method: as §1, §2, §3

[3] = biological target: T3, UGT 1A6 (Homo sapiens, UniProt P19224); experiment: UGT activity: utilization of substrate by recombinant UGT 1A6 Supersomes; conditions: 2 hour incubation at 37° C., plus vs minus UDPGA
T3 construct: purchased BD Gentest; host or cells: insect cells (microsomes)
T3 sequence (P19224 27-532): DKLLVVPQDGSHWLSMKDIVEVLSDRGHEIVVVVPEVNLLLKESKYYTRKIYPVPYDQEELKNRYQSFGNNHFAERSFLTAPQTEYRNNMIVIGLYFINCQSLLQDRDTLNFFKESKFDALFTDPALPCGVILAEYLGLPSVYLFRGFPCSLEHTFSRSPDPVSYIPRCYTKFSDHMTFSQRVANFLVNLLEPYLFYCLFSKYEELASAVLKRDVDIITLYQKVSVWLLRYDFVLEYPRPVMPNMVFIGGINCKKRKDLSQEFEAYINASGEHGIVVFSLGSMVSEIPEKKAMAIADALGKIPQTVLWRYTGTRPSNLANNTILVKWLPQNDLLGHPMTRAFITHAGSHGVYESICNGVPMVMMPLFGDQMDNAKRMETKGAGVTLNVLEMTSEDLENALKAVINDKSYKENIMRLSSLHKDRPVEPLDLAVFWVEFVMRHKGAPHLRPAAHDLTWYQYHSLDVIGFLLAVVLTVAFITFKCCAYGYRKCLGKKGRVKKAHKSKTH
Method: as §1, §2, §3

| Structure (SMILES) | % utilization by UGT 2B7 [1] | % utilization by UGT 1A8 [2] | utilization by UGT 1A6 (in words) [3] |
| --- | --- | --- | --- |
| Cc1cc(O)cc2sc(C#N)nc12 [compound 3138] | over 50% | over 50% | detectable levels of utilization above background |
| Cc1cc(O)cc2sc(C3=NC(C(=O)O)CS3)nc12 (stereo not drawn) [compound 3478] | ≤ 15% | ≤ 15% | only UGT 1A6 was able to utilize compound 3478 to any appreciable extent |
